A short description of data set [1]: Pharmacokinetic properties in mice. The class given is in vivo, ICR mice.
Data set [2] in a line: Drug concentration in mice brain. As to conditions: FIG. 1. The class given is in vivo, ICR mice. As to the method: Blood samples were collected from the fundus vein of mice before and at 5, 15, 30, 60, 90, 120, 240, 480 and 1440 minutes of administration, respectively.
2-3 time points were taken for each mouse. The mice were sacrificed at 5, 15, 30, 60 and 1440 minutes after the administration (3 mice per time point), and the brains were taken, rinsed with saline, dried on filter paper and weighed.
Brain tissues were weighed, homogenized in saline (1:4, w/v). 50 μL of homogenized samples were taken, added with 300 μL of acetonitrile containing internal standard (propranolol, 25 ng/mL) to precipitate protein. After vortexing for 10 minutes and centrifuging at 6000 g for 10 minutes, 80 μL of supernatant was taken and placed in a 96-well plate for determination of drug concentration in tissue by UPLC/MS-MS, as shown in Table 2.

The target of the next data set is p38β (Homo sapiens, UniProt Q15759). Description: In vitro inhibition of p38 kinase (LANCE Ultra TR-FRET). The class given is biochemical. In general terms: TR-FRET usually uses a lanthanide donor and a delayed reading to cut background.
Setting [3] is: male, ICR, mouse, plasma, po 10 mg/kg.

The clearance is a measure of how efficiently the substance is removed, as volume per time. As usually defined, the Cmax is the maximum level reached in the sampled fluid or tissue. By MRT is commonly meant the average time that molecules of a dose stay in the body. In general, Tmax refers to the time from dosing to the highest level. In general, IC50 refers to the concentration that inhibits the measured activity by half.

Chain of p38β (Q15759 whole entry): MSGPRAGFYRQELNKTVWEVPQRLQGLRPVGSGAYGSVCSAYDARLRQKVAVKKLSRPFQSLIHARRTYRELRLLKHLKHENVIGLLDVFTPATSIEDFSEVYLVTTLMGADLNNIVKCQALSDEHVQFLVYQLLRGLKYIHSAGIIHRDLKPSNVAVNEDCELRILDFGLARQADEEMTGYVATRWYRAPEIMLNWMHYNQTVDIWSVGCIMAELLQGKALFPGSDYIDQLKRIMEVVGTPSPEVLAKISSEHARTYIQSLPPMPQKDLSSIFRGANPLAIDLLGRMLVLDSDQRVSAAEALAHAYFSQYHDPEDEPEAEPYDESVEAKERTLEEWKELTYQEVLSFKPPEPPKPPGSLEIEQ

Turning to `O=c1ncn2nc(Oc3ccc(F)cc3F)ccc2c1-c1c(Cl)cccc1Cl` [Compound I-4, 5-(2,6-dichlorophenyl)-2-(2,4-difluorophenoxy)-6H-pyrimido[1,6-b]pyridazin-6-one], in data set [1], the “clearance rate as fraction of that of the positive compound” value was 4/11. Further, the “absorption compared with the positive compound VX-745 at the same dose” value in data set [1] (10 mg/kg) is “significantly higher”. For the same molecule, the “AUC relative to that of the positive compound” value in data set [1] (10 mg/kg, 5-1440 minutes) worked out at 4.8 times. Further, the “Thalf (iv)” value in data set [1] (iv 3 mg/kg) is listed as 2.5 h. Also, the clearance in data set [1] (male, ICR, mouse, plasma, iv 3 mg/kg) was 6.67 mL/min/kg. Also, the Vd in data set [1] (male, ICR, mouse, plasma, iv 3 mg/kg, read-out: Vss (iv)) was 1.2 L/kg. For the same molecule, in data set [1] (setting [3]), the highest level (Cmax) was 3000 ng/mL, the MRT amounted to 4.4 h and the Tmax worked out at 1.5 h. This molecule came in with a BA in data set [1] (po 10 mg/kg vs iv 3 mg/kg) of 36.8%. Moreover, the “AUClast (po)” value in data set [1] (po 10 mg/kg, 5-1440 minutes) is recorded as 8944 (h)*(ng/mL). For the same molecule, the “concentration in mouse brain relative to the positive compound” value in data set [2] (1 h time point) is listed as “more than one time”. Moreover, the “drug concentration in mice brain compared with the positive compound” value in data set [2] (different time points) is listed as “significantly higher”. In addition, the “inhibitory activity against p38β kinase compared to the positive compound” value at p38β is recorded as “superior inhibitory activity”. Besides, the IC50 on p38β (read-out: Kinase in vitro IC50(nM) p38β) worked out at 47.4 nM.
